Source: the NIST ThermoML archive (doi:10.1021/je400423u)

Experiment: xn = mol fraction of the nth substance listed
Settings: 101 kPa, Liquid; for viscosity: Falling or rolling sphere viscometry; for mass density: Vibrating tube method

CC(C)(C)O [2-methylpropan-2-ol] + CCC(C)O
Settings | mass density [kg/m3] | viscosity [mPa·s]
308.15 K, x2 = 0 | 770.36 | 2.589
308.15 K, x2 = 0.1002 | 772.862 | 2.511
308.15 K, x2 = 0.2001 | 775.563 | 2.462
308.15 K, x2 = 0.3008 | 778.356 | 2.414
308.15 K, x2 = 0.3999 | 781.092 | 2.368
308.15 K, x2 = 0.5005 | 783.761 | 2.322
308.15 K, x2 = 0.6004 | 786.229 | 2.278
308.15 K, x2 = 0.6999 | 788.492 | 2.237
308.15 K, x2 = 0.8009 | 790.567 | 2.199
308.15 K, x2 = 0.8998 | 792.397 | 2.168
313.15 K, x2 = 0 | 765.07 | 2.089
313.15 K, x2 = 0.1002 | 767.728 | 2.032
313.15 K, x2 = 0.2001 | 770.539 | 2.001
313.15 K, x2 = 0.3008 | 773.423 | 1.97
313.15 K, x2 = 0.3999 | 776.226 | 1.941
313.15 K, x2 = 0.5005 | 778.999 | 1.912
313.15 K, x2 = 0.6004 | 781.558 | 1.886
313.15 K, x2 = 0.6999 | 783.915 | 1.863
313.15 K, x2 = 0.8009 | 786.091 | 1.843
313.15 K, x2 = 0.8998 | 787.978 | 1.828
318.15 K, x2 = 0 | 759.67 | 1.69
318.15 K, x2 = 0.1002 | 762.547 | 1.671
318.15 K, x2 = 0.2001 | 765.501 | 1.651
318.15 K, x2 = 0.3008 | 768.478 | 1.632
318.15 K, x2 = 0.3999 | 771.356 | 1.613
318.15 K, x2 = 0.5005 | 774.194 | 1.596
318.15 K, x2 = 0.6004 | 776.85 | 1.581
318.15 K, x2 = 0.6999 | 779.306 | 1.569
318.15 K, x2 = 0.8009 | 781.558 | 1.56
318.15 K, x2 = 0.8998 | 783.501 | 1.554
323.15 K, x2 = 0 | 754.19 | 1.409
323.15 K, x2 = 0.1002 | 757.329 | 1.393
323.15 K, x2 = 0.2001 | 760.468 | 1.382
323.15 K, x2 = 0.3008 | 763.574 | 1.371
323.15 K, x2 = 0.3999 | 766.546 | 1.36
323.15 K, x2 = 0.5005 | 769.452 | 1.351
323.15 K, x2 = 0.6004 | 772.176 | 1.343
323.15 K, x2 = 0.6999 | 774.689 | 1.338
323.15 K, x2 = 0.8009 | 776.998 | 1.334
323.15 K, x2 = 0.8998 | 778.948 | 1.333
328.15 K, x2 = 0 | 748.62 | –
328.15 K, x2 = 0.1002 | 752.053 | 1.178
328.15 K, x2 = 0.2001 | 755.328 | 1.171
328.15 K, x2 = 0.3008 | 758.481 | 1.164
328.15 K, x2 = 0.3999 | 761.481 | 1.158
328.15 K, x2 = 0.5005 | 764.427 | 1.154
328.15 K, x2 = 0.6004 | 767.214 | 1.151
328.15 K, x2 = 0.6999 | 769.823 | 1.15
328.15 K, x2 = 0.8009 | 772.229 | 1.15
328.15 K, x2 = 0.8998 | 774.252 | 1.153
333.15 K, x2 = 0 | 742.95 | –
333.15 K, x2 = 0.1002 | 746.671 | 1.007
333.15 K, x2 = 0.2001 | 750.068 | 1.003
333.15 K, x2 = 0.3008 | 753.262 | 0.9994
333.15 K, x2 = 0.3999 | 756.271 | 0.9962
333.15 K, x2 = 0.5005 | 759.241 | 0.9947
333.15 K, x2 = 0.6004 | 762.081 | 0.9943
333.15 K, x2 = 0.6999 | 764.795 | 0.996
333.15 K, x2 = 0.8009 | 767.312 | 0.9994
333.15 K, x2 = 0.8998 | 769.418 | 1.004
338.15 K, x2 = 0 | 737.19 | –
338.15 K, x2 = 0.1002 | 741.149 | 0.8692
338.15 K, x2 = 0.2001 | 744.63 | 0.8679
338.15 K, x2 = 0.3008 | 747.865 | 0.8665
338.15 K, x2 = 0.3999 | 750.893 | 0.8654
338.15 K, x2 = 0.5005 | 753.913 | 0.8659
338.15 K, x2 = 0.6004 | 756.832 | 0.8678
338.15 K, x2 = 0.6999 | 759.643 | 0.8713
338.15 K, x2 = 0.8009 | 762.272 | 0.876
338.15 K, x2 = 0.8998 | 764.451 | 0.8813
343.15 K, x2 = 0 | 731.31 | –
343.15 K, x2 = 0.1002 | 735.411 | 0.7586
343.15 K, x2 = 0.2001 | 738.998 | 0.7589
343.15 K, x2 = 0.3008 | 742.315 | 0.7593
343.15 K, x2 = 0.3999 | 745.431 | 0.7601
343.15 K, x2 = 0.5005 | 748.529 | 0.7616
343.15 K, x2 = 0.6004 | 751.539 | 0.7648
343.15 K, x2 = 0.6999 | 754.435 | 0.769
343.15 K, x2 = 0.8009 | 757.148 | 0.7743
343.15 K, x2 = 0.8998 | 759.383 | 0.7798
